Experiment: Mouse PK and tissue distribution study (non-compartmental analysis)
Settings: mice; for Tmax / half-life: male, C57BL/6, mouse, in vivo, po; for Tmax: Tmax Obs; for half-life: t1/2 Obs
Description: The in-life study (Animal Study Protocol Number: NIH ORS-51) was conducted at the NIH Animal Facility by the Division of Veterinary Resources (DVR, Bethesda, MD). In this study, 25–35 g male C57BL/6 mice (Charles River Laboratories, Frederick, MD) were used. For the IV groups, 66 mice (33 mice per dosing group, 3 mice per timepoint) were used for a single bolus IV dose of 3 or 10 mg/kg of PDN via tail vein injection. […] The IV and PO doses were selected to obtain a complete concentration profile in plasma and tissues, based on a preliminary study. Animals were not fasted in this study. […] All dosing solutions were freshly prepared on the day of dosing. At designated time points, blood samples were collected, and mice were euthanized with CO2 in accordance with NIH ARAC Guidelines after blood collection. The death was ensured by cervical dislocation or transthoracic puncture. Lung, liver, adipose, brain, heart, small intestine, kidney, skeletal muscle, and spleen samples were obtained from mice. […] Tissue samples were rinsed with cold saline, dried on filtrate paper, weighed, and snap frozen by placing into dry ice after collection. All samples were stored at −80°C until the analysis. All blood samples were collected in K2EDTA tubes and centrifuged at 3000 g for 10 min at 4°C to obtain plasma. Plasma samples were transferred to tubes preloaded with NaF (final concentration at 5 mM in 200 µL plasma) and stored at −80°C until analysis.
For fat tissue, an additional 3-fold volume of acetonitrile was added to the water homogenate and was vortexed in a shaker for another 30 min.
A 10 μ aliquot of samples, blank controls (blank plasma or tissue homogenates), quality controls (QC), and standards were added into 200 μ acetonitrile solution with 100 ng/mL tolbutamide (internal standard, IS). All samples were then thoroughly shaken for 5 min to precipitate proteins. The samples were centrifuged at 3000 rpm and 4°C for 30 min. The supernatant was injected for UPLC-MS/MS analysis.
The mobile phase consisted of 0.1% formic acid in water (A) and 0.1% formic acid in acetonitrile (B), the flow rate was 600 μL/min. […] All analyses were carried out using a Waters Acquity I-Class UPLC interfaced with a Waters Xevo TQ-S mass spectrometer. The mass spectrometer multiple reaction monitoring (MRM) experiment was operated with an ESI source at negative mode with spray voltage of 1 kV, and temperature of 600°C. Both Q1 and Q3 were set at unit resolution. […] The correlation coefficients of the calibration curves were all greater than 0.99. […] The linear range, precision and accuracy of QCs in various tissues and plasma are shown in Supplementary Table S1 and Supplementary Table S2.
The area under the concentration vs. time curve (AUC) was calculated using the linear trapezoidal method. The terminal rate constant (λ) was obtained from the slope of at least three data points of the apparent terminal phase of the log linear concentration vs. time curve. AUC0–∞ was estimated as the sum of the AUC0–t (where t is the time of the last measurable concentration) and Ct/λ. […] Bioavailability (F) was calculated using ratios of dose-normalized AUC of PO and IV administration.

[1] = 10 mg/kg, PO 10 mg/kg PDN, adipose
[2] = 10 mg/kg, PO 10 mg/kg PDN, brain
[3] = 10 mg/kg, PO 10 mg/kg PDN, heart
[4] = 10 mg/kg, PO 10 mg/kg PDN, intestine
[5] = 10 mg/kg, PO 10 mg/kg PDN, kidney
[6] = 10 mg/kg, PO 10 mg/kg PDN, liver
[7] = 10 mg/kg, PO 10 mg/kg PDN, lung
[8] = 10 mg/kg, PO 10 mg/kg PDN, muscle
[9] = 10 mg/kg, PO 10 mg/kg PDN, plasma
[10] = 10 mg/kg, PO 10 mg/kg PDN, spleen

## O=C(Nc1ccc([N+](=O)[O-])cc1Cl)c1cc(Cl)ccc1OC(=O)N1CCNCC1 [PDN]
[1]
  Tmax: 1.5 h
  half-life: 209 min
[2]
  Tmax: 1.5 h
  half-life: 147 min
[3]
  Tmax: 1.5 h
  half-life: 130 min
[4]
  Tmax: 0.167 h
  half-life: 107 min
[5]
  Tmax: 1.5 h
  half-life: 179 min
[6]
  Tmax: 1.5 h
  half-life: 142 min
[7]
  Tmax: 1.5 h
  half-life: 197 min
[8]
  Tmax: 1.5 h
  half-life: 170 min
[9]
  Tmax: 1.5 h
  half-life: ~192 min
[10]
  Tmax: 1.5 h
  half-life: 190 min
IV 3 mg/kg PDN, adipose
  AUC0-∞ Obs: 990 (169) h*ng/g
IV 3 mg/kg PDN, brain
  AUC0-∞ Obs: 1024 (124) h*ng/g
IV 3 mg/kg PDN, heart
  AUC0-∞ Obs: 5676 (481) h*ng/g
IV 3 mg/kg PDN, intestine
  AUC0-∞ Obs: 3222 (749) h*ng/g
IV 3 mg/kg PDN, kidney
  AUC0-∞ Obs: 9833 (1080) h*ng/g
IV 3 mg/kg PDN, lung
  AUC0-∞ Obs: 53071 (4993) h*ng/g
IV 3 mg/kg PDN, muscle
  AUC0-∞ Obs: 1828 (221) h*ng/g
IV 3 mg/kg PDN, spleen
  AUC0-∞ Obs: 16808 (1242) h*ng/g
IV 10 mg/kg PDN, brain
  AUC0-∞ Obs: 5622 (1331) h*ng/g
IV 10 mg/kg PDN, heart
  AUC0-∞ Obs: 31647 (6073) h*ng/g
IV 10 mg/kg PDN, intestine
  AUC0-∞ Obs: 14586 (1295) h*ng/g
IV 10 mg/kg PDN, kidney
  AUC0-∞ Obs: 62371 (6713) h*ng/g
IV 10 mg/kg PDN, liver
  AUC0-∞ Obs: 883 (323) h*ng/g
IV 10 mg/kg PDN, lung
  AUC0-∞ Obs: 173216 (21722) h*ng/g
IV 10 mg/kg PDN, muscle
  AUC0-∞ Obs: 10301 (2999) h*ng/g
IV 10 mg/kg PDN, spleen
  AUC0-∞ Obs: 63505 (10129) h*ng/g
PO 10 mg/kg PDN, adipose
  AUC0-∞ Obs: 2788 (299) h*ng/g
PO 10 mg/kg PDN, brain
  AUC0-∞ Obs: 2741 (488) h*ng/g
PO 10 mg/kg PDN, heart
  AUC0-∞ Obs: 10680 (1787) h*ng/g
PO 10 mg/kg PDN, intestine
  AUC0-∞ Obs: 37739 (6003) h*ng/g
PO 10 mg/kg PDN, kidney
  AUC0-∞ Obs: 40372 (8592) h*ng/g
PO 10 mg/kg PDN, liver
  AUC0-∞ Obs: 591 (176) h*ng/g
PO 10 mg/kg PDN, lung
  AUC0-∞ Obs: 123875 (23366) h*ng/g
PO 10 mg/kg PDN, muscle
  AUC0-∞ Obs: 4005 (814) h*ng/g
PO 10 mg/kg PDN, spleen
  AUC0-∞ Obs: 45737 (9727) h*ng/g
PO 10 mg/kg PDN, 10 mg/kg
  F (bioavailability) Obs: 85.8%
